Assay results taken from patent US12258344B2, “Azaaromatic amide derivatives for the treatment of cancer” (SHENZHEN FORWARD PHARMACEUTICALS CO., LTD., priority 2019, dated 2025).

Experiments:
[1] = molecular target: BaF3 (EGFR-D770insNPG) (Homo sapiens, UniProt P00533, INS772GNP, cells depend on it); test: Test 6: BaF3 (EGFR-D770insNPG) cell proliferation test; type: cell-based; conditions: 72 hours, Cell Titer-Glo, read-out: Test 6 - IC50
Method: Test 6: BaF3 (EGFR-D770insNPG) Cell Proliferation Test
BaF3 (EGFR-D770insNPG) was cultured in RPMI1640 medium containing 10% fetal bovine serum and 2 mM glutamine. The cells were grown at 37° C. in a humidified incubator with 5% CO2.
(§1) The number of viable cells in the culture was measured according to the protocol described in Promega's Cell Titer-Glo Luminescent cell Viability Assay (Promega catalog number #G7570). 90 μl of cells (3,000 cells/well) were cultured in growth medium in a Corning black transparent bottom 96-well plate, and cultured in a 5% CO2 humidified incubator at 37° C. overnight. The compound serially diluted in 100% DMSO was added to the cells using a pipette, and the cells were incubated for another 72 hours. 100 μl of the mixed Cell Titer-Glo reagent was added to the cells in the 96-well culture plate to lyse the cells and mix gently. Subsequently, the […] was detected on the Envision microplate detector to obtain the data of each compound. Finally, the data was input into a suitable software package (such as Prism) for curve fitting analysis.

[2] = molecular target: T1, HER4 kinase (Homo sapiens, UniProt Q15303); test: Test 12: HER4 kinase screening test; type: binding; conditions: for inhibition at 1 µM: compound concentration 1 μM, read-out: 1 μM Inhibition rate (%); for inhibition at 10 µM: compound concentration 10 μM, read-out: 10 μM Inhibition rate (%)
T1 construct: made in house
Method: Test 12: HER4 Kinase Screening Test
Most kinase activity tests were carried out by T7 phage expressing kinase expressed in E. coli system. After E. coli grew to the logarithmic phase, E. coli was infected with T7 bacteriophage (moi=0.4) and cultured with shaking at 32° C. until lysis (90-150 minutes). The lysate was filtered with a centrifuge (6,000 g) and filtration membrane (0.2 μm) to remove cell debris. Other individual kinases to be tested were expressed by HEK-293 cells and labeled with DNA for qPCR detection.
Next, the ligand magnetic beads were blocked with excess biotin and washed with blocking buffer (SeaBlock (Pierce), 1% BSA, 0.05% Tween-20, 1 mm DTT) to remove unbound ligand and reduce non-specific binding of phages. […] 100% DMSO was used to prepare the test compound at a concentration of 40×, which was directly diluted into the reaction system. All reactions were carried out on a polypropylene 384-well plate, and the final volume of the reaction system was 0.02 ml.

[3] = molecular target: BaF3 (EGFR-S768I) (Homo sapiens, UniProt P00533, S768I, cells depend on it); test: Test 7: BaF3 (EGFR-S768I) cell proliferation test; type: cell-based; conditions: 72 hours, Cell Titer-Glo, read-out: Test 7 - IC50
Method: Test 7: BaF3 (EGFR-S768I) Cell Proliferation Test
BaF3 (EGFR-S768I) was cultured in RPMI1640 medium containing 10% fetal bovine serum and 2 mM glutamine. The cells were grown at 37° C. in a humidified incubator with 5% CO2.
as §1

[4] = molecular target: BaF3 (HER2-G776insVC) (Homo sapiens, UniProt P04626, cells depend on it, form not given); test: Test 11: BaF3 (HER2-G776insVC) cell proliferation test; type: cell-based; conditions: 72 hours, Cell Titer-Glo, read-out: Test 11 - IC50
Method: Test 11: BaF3 (HER2-G776insVC) Cell Proliferation Test
The engineered cell line BaF3 (HER2-G776insVC) was constructed by the inventor himself (for the method of cell line construction, see Jingrui Jiang et al., Cancer Res. 2005 Oct. 1; 65 (19): 8964-74; Jacqulyne P. Robichaux et al., Nat Med. 2018 May; 24 (5): 638-646). BaF3 (HER2-G776insVC) was cultured in RPMI1640 medium containing 10% fetal bovine serum and 2 mM glutamine. The cells were grown at 37° C. in a humidified incubator with 5% CO2.
as §1

[5] = molecular target: BaF3 (EGFR-A763insFQEA) (Homo sapiens, UniProt P00533, INS763FQEA, cells depend on it); test: Test 3: BaF3 (EGFR-A763insFQEA) cell proliferation test; type: cell-based; conditions: 72 hours, Cell Titer-Glo, read-out: Test 3 - IC50
Method: Test 3: BaF3 (EGFR-A763insFOEA) Cell Proliferation Test
BaF3 (EGFR-A763insFQEA) was cultured in RPMI1640 medium containing 10% fetal bovine serum and 2 mM glutamine. The cells were grown at 37° C. in a humidified incubator with 5% CO2.
as §1

[6] = molecular target: BaF3 (EGFR-L861Q) (Homo sapiens, UniProt P00533, L861Q, cells depend on it); test: Test 8: BaF3 (EGFR-L861Q) cell proliferation test; type: cell-based; conditions: 72 hours, Cell Titer-Glo, read-out: Test 8 - IC50
Method: Test 8: BaF3 (EGFR-L8610) Cell Proliferation Test
BaF3 (EGFR-L861Q) was cultured in RPMI1640 medium containing 10% fetal bovine serum and 2 mM glutamine. The cells were grown at 37° C. in a humidified incubator with 5% CO2.
as §1

[7] = tested on: NCI-H1975 (EGFR L858R/T790M double mutant); test: Test 1: EGFR L858R/T790M (EGFR double mutant) cell proliferation test; type: cell-based; conditions: Homo sapiens; NCI-H1975 cells, 72 hours, Cell Titer-Glo
[8] = molecular target: BaF3 (HER2-P780insGSP) (Homo sapiens, UniProt P04626, DUP778-780, cells depend on it); test: Test 10: BaF3 (HER2-P780insGSP) cell proliferation test; type: cell-based; conditions: 72 hours, Cell Titer-Glo, read-out: Test 10 - IC50
Method: Test 10: BaF3 (HER2-P780insGSP) Cell Proliferation Test
BaF3 (HER2-P780insGSP) was cultured in RPMI1640 medium containing 10% fetal bovine serum and 2 mM glutamine. The cells were grown at 37° C. in a humidified incubator with 5% CO2.
as §1

Sequence of BaF3 (HER2-G776insVC) (P04626 with tags, fused parts or gaps DELINS776-776VC): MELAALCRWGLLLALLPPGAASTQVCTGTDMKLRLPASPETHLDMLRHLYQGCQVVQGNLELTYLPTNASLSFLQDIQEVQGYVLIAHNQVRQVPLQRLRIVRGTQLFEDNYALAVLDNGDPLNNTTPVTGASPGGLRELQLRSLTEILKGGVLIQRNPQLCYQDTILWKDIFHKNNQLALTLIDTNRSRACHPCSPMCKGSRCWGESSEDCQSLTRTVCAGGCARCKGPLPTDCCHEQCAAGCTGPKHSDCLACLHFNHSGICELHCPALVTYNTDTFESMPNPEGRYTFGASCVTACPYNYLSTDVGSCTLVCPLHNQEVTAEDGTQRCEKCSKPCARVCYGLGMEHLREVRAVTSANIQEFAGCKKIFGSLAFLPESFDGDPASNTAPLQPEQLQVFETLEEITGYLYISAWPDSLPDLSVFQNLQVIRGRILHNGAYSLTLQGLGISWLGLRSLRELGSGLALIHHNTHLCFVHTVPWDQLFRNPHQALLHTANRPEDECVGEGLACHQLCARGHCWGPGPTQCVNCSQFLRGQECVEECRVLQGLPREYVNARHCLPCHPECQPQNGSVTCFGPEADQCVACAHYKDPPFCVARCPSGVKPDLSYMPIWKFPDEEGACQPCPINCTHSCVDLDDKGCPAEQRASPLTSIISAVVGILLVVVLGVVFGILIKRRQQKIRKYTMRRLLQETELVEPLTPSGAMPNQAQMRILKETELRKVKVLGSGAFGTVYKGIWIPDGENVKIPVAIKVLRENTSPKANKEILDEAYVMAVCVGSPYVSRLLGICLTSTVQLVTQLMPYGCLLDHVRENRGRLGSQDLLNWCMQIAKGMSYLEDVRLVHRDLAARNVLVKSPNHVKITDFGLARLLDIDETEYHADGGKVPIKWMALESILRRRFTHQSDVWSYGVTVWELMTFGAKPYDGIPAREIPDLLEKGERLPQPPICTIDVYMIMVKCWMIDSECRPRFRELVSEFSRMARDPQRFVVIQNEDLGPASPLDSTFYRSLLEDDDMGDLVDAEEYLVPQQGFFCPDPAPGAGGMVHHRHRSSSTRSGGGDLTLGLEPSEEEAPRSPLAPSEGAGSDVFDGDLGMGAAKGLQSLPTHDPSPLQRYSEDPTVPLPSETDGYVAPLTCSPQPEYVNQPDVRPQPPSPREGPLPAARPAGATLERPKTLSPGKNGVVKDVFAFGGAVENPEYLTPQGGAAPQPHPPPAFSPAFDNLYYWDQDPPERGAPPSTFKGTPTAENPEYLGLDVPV
T1 sequence (Q15303 26-1308): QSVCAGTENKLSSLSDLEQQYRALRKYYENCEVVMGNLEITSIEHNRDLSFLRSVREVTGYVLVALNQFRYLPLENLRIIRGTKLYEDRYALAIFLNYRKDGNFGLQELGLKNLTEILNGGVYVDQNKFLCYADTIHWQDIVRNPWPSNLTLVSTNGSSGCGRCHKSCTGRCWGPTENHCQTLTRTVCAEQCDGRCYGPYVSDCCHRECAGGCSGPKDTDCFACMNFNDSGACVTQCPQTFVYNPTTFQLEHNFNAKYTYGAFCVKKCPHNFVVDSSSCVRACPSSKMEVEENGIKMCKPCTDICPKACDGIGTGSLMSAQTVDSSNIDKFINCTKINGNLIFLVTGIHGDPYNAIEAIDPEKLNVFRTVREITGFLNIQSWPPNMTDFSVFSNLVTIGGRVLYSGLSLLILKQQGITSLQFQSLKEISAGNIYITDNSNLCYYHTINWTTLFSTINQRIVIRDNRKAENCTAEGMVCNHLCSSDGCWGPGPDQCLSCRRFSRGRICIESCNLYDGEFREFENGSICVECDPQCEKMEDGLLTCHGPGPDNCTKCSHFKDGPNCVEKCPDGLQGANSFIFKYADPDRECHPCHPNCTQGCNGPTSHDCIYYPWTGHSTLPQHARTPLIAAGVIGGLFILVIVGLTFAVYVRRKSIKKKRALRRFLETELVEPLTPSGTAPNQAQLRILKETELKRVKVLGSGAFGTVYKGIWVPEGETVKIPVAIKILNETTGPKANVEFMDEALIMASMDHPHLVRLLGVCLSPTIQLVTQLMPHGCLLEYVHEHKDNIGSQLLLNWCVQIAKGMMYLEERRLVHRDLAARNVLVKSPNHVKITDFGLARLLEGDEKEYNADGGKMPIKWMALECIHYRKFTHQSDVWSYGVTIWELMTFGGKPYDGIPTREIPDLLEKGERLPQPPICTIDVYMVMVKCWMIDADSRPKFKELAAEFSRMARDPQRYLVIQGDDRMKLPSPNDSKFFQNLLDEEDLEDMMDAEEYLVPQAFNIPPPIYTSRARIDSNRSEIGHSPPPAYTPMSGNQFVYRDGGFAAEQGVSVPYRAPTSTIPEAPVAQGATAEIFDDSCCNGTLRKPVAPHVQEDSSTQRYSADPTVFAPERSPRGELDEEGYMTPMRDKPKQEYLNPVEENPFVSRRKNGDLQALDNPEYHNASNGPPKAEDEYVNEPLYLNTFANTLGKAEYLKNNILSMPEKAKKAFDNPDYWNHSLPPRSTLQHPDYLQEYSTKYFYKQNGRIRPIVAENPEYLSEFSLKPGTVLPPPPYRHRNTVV
Sequence of BaF3 (EGFR-A763insFQEA) (P00533 with tags, fused parts or gaps INS763FQEA): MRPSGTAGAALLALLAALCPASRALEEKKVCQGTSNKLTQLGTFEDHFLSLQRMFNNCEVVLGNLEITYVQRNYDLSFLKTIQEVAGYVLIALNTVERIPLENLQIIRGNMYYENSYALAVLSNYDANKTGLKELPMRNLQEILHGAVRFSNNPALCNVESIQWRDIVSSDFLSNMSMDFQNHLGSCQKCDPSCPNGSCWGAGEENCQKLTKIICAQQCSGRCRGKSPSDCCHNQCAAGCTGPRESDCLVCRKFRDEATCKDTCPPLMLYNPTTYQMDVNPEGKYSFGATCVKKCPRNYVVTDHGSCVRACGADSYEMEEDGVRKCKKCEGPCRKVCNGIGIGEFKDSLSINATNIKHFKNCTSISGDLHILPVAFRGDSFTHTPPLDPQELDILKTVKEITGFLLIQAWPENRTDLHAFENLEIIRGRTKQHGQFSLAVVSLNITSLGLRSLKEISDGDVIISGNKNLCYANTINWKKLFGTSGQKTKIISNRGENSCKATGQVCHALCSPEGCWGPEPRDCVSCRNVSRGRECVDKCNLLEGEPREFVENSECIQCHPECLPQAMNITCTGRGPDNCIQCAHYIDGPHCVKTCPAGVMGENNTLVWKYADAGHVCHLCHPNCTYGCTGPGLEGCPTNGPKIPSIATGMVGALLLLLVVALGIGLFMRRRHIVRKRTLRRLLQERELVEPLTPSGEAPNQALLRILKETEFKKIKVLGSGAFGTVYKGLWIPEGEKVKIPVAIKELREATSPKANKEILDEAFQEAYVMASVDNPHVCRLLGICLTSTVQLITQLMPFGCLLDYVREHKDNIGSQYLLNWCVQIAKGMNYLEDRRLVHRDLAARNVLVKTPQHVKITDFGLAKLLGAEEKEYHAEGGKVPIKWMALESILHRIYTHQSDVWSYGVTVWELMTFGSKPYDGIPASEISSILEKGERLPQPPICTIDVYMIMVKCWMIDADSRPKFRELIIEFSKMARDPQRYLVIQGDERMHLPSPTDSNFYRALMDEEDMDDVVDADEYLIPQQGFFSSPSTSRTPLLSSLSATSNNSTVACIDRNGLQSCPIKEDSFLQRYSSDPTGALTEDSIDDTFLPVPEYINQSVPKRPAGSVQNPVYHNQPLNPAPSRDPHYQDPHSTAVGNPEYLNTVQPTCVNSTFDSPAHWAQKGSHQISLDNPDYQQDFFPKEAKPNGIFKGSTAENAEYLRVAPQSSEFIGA
Sequence of BaF3 (HER2-P780insGSP) (P04626 with tags, fused parts or gaps DUP778-780): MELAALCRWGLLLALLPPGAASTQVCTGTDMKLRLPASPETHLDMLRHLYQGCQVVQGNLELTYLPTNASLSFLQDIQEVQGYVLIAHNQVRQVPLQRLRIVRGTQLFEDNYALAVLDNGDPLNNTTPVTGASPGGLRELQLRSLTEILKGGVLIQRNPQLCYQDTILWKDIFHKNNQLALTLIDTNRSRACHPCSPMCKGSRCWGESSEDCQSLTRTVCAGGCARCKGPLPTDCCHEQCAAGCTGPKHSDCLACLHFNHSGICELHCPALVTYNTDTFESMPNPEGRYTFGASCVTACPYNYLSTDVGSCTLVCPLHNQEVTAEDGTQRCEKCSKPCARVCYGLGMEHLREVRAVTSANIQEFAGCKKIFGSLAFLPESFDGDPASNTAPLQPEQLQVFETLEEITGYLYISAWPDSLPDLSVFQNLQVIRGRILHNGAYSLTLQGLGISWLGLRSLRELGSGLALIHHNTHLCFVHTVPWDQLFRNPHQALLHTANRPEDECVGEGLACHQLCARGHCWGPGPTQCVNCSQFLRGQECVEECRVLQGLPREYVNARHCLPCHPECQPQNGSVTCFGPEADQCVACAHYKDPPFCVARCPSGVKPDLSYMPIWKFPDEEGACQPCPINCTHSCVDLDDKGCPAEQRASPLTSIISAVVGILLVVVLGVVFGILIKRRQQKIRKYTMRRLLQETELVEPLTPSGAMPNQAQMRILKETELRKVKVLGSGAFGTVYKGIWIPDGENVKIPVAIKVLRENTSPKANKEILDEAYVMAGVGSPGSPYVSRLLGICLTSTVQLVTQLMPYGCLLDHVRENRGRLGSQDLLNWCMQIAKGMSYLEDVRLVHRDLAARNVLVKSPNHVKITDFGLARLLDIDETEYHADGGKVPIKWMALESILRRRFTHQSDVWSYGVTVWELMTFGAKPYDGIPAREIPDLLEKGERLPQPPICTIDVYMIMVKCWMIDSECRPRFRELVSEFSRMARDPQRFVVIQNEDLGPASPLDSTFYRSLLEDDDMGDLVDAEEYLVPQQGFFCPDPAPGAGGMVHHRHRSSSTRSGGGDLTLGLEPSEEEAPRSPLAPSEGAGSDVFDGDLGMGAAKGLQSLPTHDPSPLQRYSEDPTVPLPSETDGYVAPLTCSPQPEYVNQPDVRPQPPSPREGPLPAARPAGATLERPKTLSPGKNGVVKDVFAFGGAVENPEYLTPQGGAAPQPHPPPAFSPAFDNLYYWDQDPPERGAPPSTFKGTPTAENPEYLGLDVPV

Structure (SMILES) | GI50 [1] [nM] | inhibition at 1 µM [2] [%] | inhibition at 10 µM [2] [%] | GI50 [3] [nM] | GI50 [4] [nM] | GI50 [5] [nM] | GI50 [6] [nM] | IC50 [7] [nM] | GI50 [8] [nM]
C=CC(=O)Nc1cc(Nc2ncnc(-c3cn(C)c4ccc(F)cc34)n2)c(OC)cc1N(C)CCN(C)C [Example 11] | 10.2 | > 95 | > 95 | 38.1 | 1.07 | 9.45 | 22.5 | 13.5 | 8.76
C=CC(=O)Nc1cc(Nc2ncnc(-c3cn(C)c4ccc(F)cc34)n2)c(OC(F)F)cc1N(C)CCN(C)C [Example 14, N-(4-(difluoromethoxy)-2-((2-(dimethylamino)ethyl)(methyl)amino)-5-((4-(5-fluoro-1-methyl-1H-indol-3-yl)-1,3,5-triazin-2-yl)amino)phenyl)acrylamide] | 10 | > 98 | > 98 | 8.91 | 1.95 | 7.6 | 4.58 | 16.8 | 6.92
C=CC(=O)Nc1cc(Nc2ncnc(-c3cn(C)c4ccc(F)cc34)n2)c(OCC(F)(F)F)cc1N(C)CCN(C)C [Example 15, N-(2-((2-(dimethylamino)ethyl)(methyl)amino)-5-((4-(5-fluoro-1-methyl-1H-indol-3-yl)-1,3,5-triazin-2-yl)amino)-4-(2,2,2-trifluoroethoxy)phenyl)acrylamide] | 8.87 | > 98 | > 98 | 7.41 | 1.83 | 14 | 3.87 | 12.7 | 6.58
